pIC50: −log10 of the molar value. In brackets after ≈: the same amount, converted by molar mass.
Columns and labels:
[1] = test system: A. tumefaciens; experiment: microbe, parasite or virus in culture; type: cell-based; settings: Agrobacterium tumefaciens, 24 h
[2] = test system: Sinorhizobium meliloti; experiment: microbe, parasite or virus in culture; type: cell-based
[3] = molecular target: SecA of Ca. L. asiaticus (Candidatus Liberibacter asiaticus, UniProt A0ABM5NFG5); experiment: biochemical
[4] = test system: Mesorhizobium loti; experiment: microbe, parasite or virus in culture; type: cell-based
[5] = test system: Agrobacterium tumefaciens; experiment: microbe, parasite or virus in culture; type: cell-based
[6] = test system: Bradyrhizobium japonicum; experiment: microbe, parasite or virus in culture; type: cell-based
[7] = test system: Liberibacter crescens; experiment: microbe, parasite or virus in culture; type: cell-based
[8] = test system: Rhizobium etli; experiment: microbe, parasite or virus in culture; type: cell-based
[9] = test system: Xanthomonas citri; experiment: microbe, parasite or virus in culture; type: cell-based, Xanthomonas citri subsp. citri

| Structure (SMILES) | MBC [2] | MIC [2] | MBC [4] | MIC [4] | MBC [5] | MIC [5] | MBC ([6]; 24 hrs) | MIC ([6]; 24 hrs) | MBC ([6]; 120 hrs) | MIC ([6]; 120 hrs) | MBC ([7]; 24 h) | MIC ([7]; 24 h) | MBC ([7]; 120 h) | MIC ([7]; 120 h) | MBC ([8]; 24 hrs) | MIC ([8]; 24 hrs) | MBC ([8]; 120 hrs) | MIC ([8]; 120 hrs) | MBC [9] | MIC [9] | further results |
| --- | --- | --- | --- | --- | --- | --- | --- | --- | --- | --- | --- | --- | --- | --- | --- | --- | --- | --- | --- | --- | --- |
| COc1ccc(NC(=O)C2(NC(=O)c3ccc(-n4cnnn4)cc3)CCCCC2)cc1 [Compound C18, N-(1-{[(4-methoxy-phenyl)amino]carbonyl}cyclo-hexyl)-4-(1H-tetrazol-1-yl)benzamide] | 64 mg/L (≈ 152 µM) | 32 mg/L (≈ 76.1 µM) | 32 mg/L (≈ 76.1 µM) | 16 mg/L (≈ 38.1 µM) | 128 mg/L (≈ 304 µM) | 32 mg/L (≈ 76.1 µM) | 8 mg/L (≈ 19 µM) | 8 mg/L (≈ 19 µM) | 16 mg/L (≈ 38.1 µM) | 16 mg/L (≈ 38.1 µM) | 8 mg/L (≈ 19 µM) | 8 mg/L (≈ 19 µM) | 16 mg/L (≈ 38.1 µM) | 16 mg/L (≈ 38.1 µM) | 16 mg/L (≈ 38.1 µM) | 16 mg/L (≈ 38.1 µM) | 32 mg/L (≈ 76.1 µM) | 32 mg/L (≈ 76.1 µM) | 32 mg/L (≈ 76.1 µM) | 16 mg/L (≈ 38.1 µM) | MBC [1]: 256 mg/L (≈ 609 µM); pIC50 [3]: 6.32 |
| CC(C)[C@H](NC(=O)c1ccccc1)C(=O)Nc1cccc(-n2cnnn2)c1 [SA3, N-[(2S)-3-Methyl-1-oxo-1-{[3-(1H-tetrazol-1-yl)phenyl]amino}-2-butanyl] benzamide] | 64 mg/L (≈ 176 µM) | 32 mg/L (≈ 87.8 µM) | 32 mg/L (≈ 87.8 µM) | 16 mg/L (≈ 43.9 µM) | 64 mg/L (≈ 176 µM) | 32 mg/L (≈ 87.8 µM) | 32 mg/L (≈ 87.8 µM) | 16 mg/L (≈ 43.9 µM) | 64 mg/L (≈ 176 µM) | 32 mg/L (≈ 87.8 µM) | 16 mg/L (≈ 43.9 µM) | 8 mg/L (≈ 22 µM) | 32 mg/L (≈ 87.8 µM) | 16 mg/L (≈ 43.9 µM) | 32 mg/L (≈ 87.8 µM) | 32 mg/L (≈ 87.8 µM) | 64 mg/L (≈ 176 µM) | 64 mg/L (≈ 176 µM) | 128 mg/L (≈ 351 µM) | 64 mg/L (≈ 176 µM) |  |
| COc1ccc(C2Nc3ccc(C(=O)c4ccccc4)cc3NC3=C2C(=O)CC(c2ccccc2)C3)cc1 (centres unmarked) [SA5, 7-Benzoyl-11-(4-methoxy-phenyl)-3-phenyl-2,3,4,5,10,11-hexahydro-1H-dibenzo[b,e] [1,4]diazepin-1-one] | 64 mg/L (≈ 128 µM) | 32 mg/L (≈ 63.9 µM) | 32 mg/L (≈ 63.9 µM) | 16 mg/L (≈ 32 µM) | 64 mg/L (≈ 128 µM) | 32 mg/L (≈ 63.9 µM) | 16 mg/L (≈ 32 µM) | 16 mg/L (≈ 32 µM) | 32 mg/L (≈ 63.9 µM) | 32 mg/L (≈ 63.9 µM) | 16 mg/L (≈ 32 µM) | 8 mg/L (≈ 16 µM) | 32 mg/L (≈ 63.9 µM) | 16 mg/L (≈ 32 µM) | 16 mg/L (≈ 32 µM) | 16 mg/L (≈ 32 µM) | 32 mg/L (≈ 63.9 µM) | 32 mg/L (≈ 63.9 µM) | 128 mg/L (≈ 256 µM) | 64 mg/L (≈ 128 µM) |  |
| Nc1c(C(=O)O)sc2nc(-c3ccccc3)cc(-c3ccc(F)cc3)c12 [SA2, 3-Amino-4-(4-fluorophenyl)-6-phenyl-thieno[2,3-b]pyridine-2-carboxylic acid] | 32 mg/L (≈ 87.8 µM) | 16 mg/L (≈ 43.9 µM) | 32 mg/L (≈ 87.8 µM) | 16 mg/L (≈ 43.9 µM) | 64 mg/L (≈ 176 µM) | 32 mg/L (≈ 87.8 µM) | 64 mg/L (≈ 176 µM) | 32 mg/L (≈ 87.8 µM) | 128 mg/L (≈ 351 µM) | 64 mg/L (≈ 176 µM) | 16 mg/L (≈ 43.9 µM) | 16 mg/L (≈ 43.9 µM) | 32 mg/L (≈ 87.8 µM) | 32 mg/L (≈ 87.8 µM) | 32 mg/L (≈ 87.8 µM) | 16 mg/L (≈ 43.9 µM) | 64 mg/L (≈ 176 µM) | 32 mg/L (≈ 87.8 µM) | 64 mg/L (≈ 176 µM) | 32 mg/L (≈ 87.8 µM) |  |
| CC(C)[C@H](NC(=O)c1c(F)cccc1F)C(=O)Nc1ccc(-n2cnnn2)cc1 [SA1, 2,6-Difluoro-N-[(2S)-3-methyl-1-oxo-1-{[4-(1H-tetrazol-1-yl)phenyl]amino}-2-butanyl] benzamide] | 32 mg/L (≈ 79.9 µM) | 16 mg/L (≈ 40 µM) | 32 mg/L (≈ 79.9 µM) | 16 mg/L (≈ 40 µM) | 64 mg/L (≈ 160 µM) | 32 mg/L (≈ 79.9 µM) | 16 mg/L (≈ 40 µM) | 16 mg/L (≈ 40 µM) | 32 mg/L (≈ 79.9 µM) | 32 mg/L (≈ 79.9 µM) | 16 mg/L (≈ 40 µM) | 16 mg/L (≈ 40 µM) | 32 mg/L (≈ 79.9 µM) | 32 mg/L (≈ 79.9 µM) | 32 mg/L (≈ 79.9 µM) | 16 mg/L (≈ 40 µM) | 64 mg/L (≈ 160 µM) | 32 mg/L (≈ 79.9 µM) | 128 mg/L (≈ 320 µM) | 64 mg/L (≈ 160 µM) |  |
| COc1ccc(N(C(=O)c2ccc(-n3cnnn3)cc2)C2(C(=O)Nc3ccccc3C)CCCCC2)cc1 [SSC11, N-(4-methoxy-phenyl)-N-{1-[(2-methyl-phenyl)carbamoyl]cyclohexyl}-4-(1H-tetrazol-1-yl)benzamide] | 64 mg/L (≈ 125 µM) | 32 mg/L (≈ 62.7 µM) | 32 mg/L (≈ 62.7 µM) | 16 mg/L (≈ 31.3 µM) | 128 mg/L (≈ 251 µM) | 32 mg/L (≈ 62.7 µM) | 16 mg/L (≈ 31.3 µM) | 16 mg/L (≈ 31.3 µM) | 32 mg/L (≈ 62.7 µM) | 32 mg/L (≈ 62.7 µM) | 16 mg/L (≈ 31.3 µM) | 16 mg/L (≈ 31.3 µM) | 32 mg/L (≈ 62.7 µM) | 32 mg/L (≈ 62.7 µM) | 32 mg/L (≈ 62.7 µM) | 16 mg/L (≈ 31.3 µM) | 64 mg/L (≈ 125 µM) | 32 mg/L (≈ 62.7 µM) | 64 mg/L (≈ 125 µM) | 32 mg/L (≈ 62.7 µM) |  |
